What was measured:
Format in all cases: functional
Pyricularia oryzae = experiment: Fungicidal activity against Magnaporthe oryzae at 250 ppm relative to control
Phytophthora infestans = experiment: Fungicidal activity against Phytophthora infestans at 250 ppm relative to control
Puccinia recondita = experiment: Fungicidal activity against Puccinia recondita at 250 ppm relative to control
Botrytis cinerea = experiment: Fungicidal activity against Botryotinia fuckeliana at 250 ppm relative to control
Blumeria graminis = experiment: Fungicidal activity against Blumeria graminis at 250 ppm relative to control
Rhizoctonia solani = experiment: Fungicidal activity against Rhizoctonia solani at 250 ppm relative to control

SMILES	Activity (Pyricularia oryzae) [%]	Activity (Phytophthora infestans) [%]	Activity (Puccinia recondita) [%]	Activity (Botrytis cinerea) [%]	Activity (Blumeria graminis) [%]	Activity (Rhizoctonia solani) [%]
Cc1c(/C=N/Nc2ccc(Cl)cc2)no[n+]1[O-]	0	45	67	71	34	37
Cc1c(/C=N/c2ccccc2)no[n+]1[O-]	7	73	17	62	15	5
Cc1c(/C=N/c2ccc(Cl)cc2)no[n+]1[O-]	29	77	67	52	53	0
Cc1ccc(/N=C/c2no[n+]([O-])c2C)cc1C	11	53	0	33	21	24
Cc1c(/C=N/Nc2ccccc2)no[n+]1[O-]	21	36	60	43	53	0
[O-][n+]1onc(-c2ccc3ccccc3c2)c1-c1ccc2ccccc2c1 [3,4-DI(2-NAPHTHYL)FUROXAN]	60	14	0	51	73	10
[O-][n+]1onc(-c2ccc(Cl)cc2)c1-c1ccc(Cl)cc1 [3,4-DI(4-CHLOROPHENYL)FUROXAN]	14	28	87	30	9	35
[O-][n+]1onc(-c2ccc(Cl)cc2Cl)c1-c1ccc(Cl)cc1Cl [3,4-DI-(2,4-DICHLOROPHENYL)FUROXAN]	38	7	0	0	0	16
[O-][n+]1onc(-c2c(Cl)cccc2Cl)c1-c1c(Cl)cccc1Cl [3,4-DI-(2,6-DICHLOROPHENYL)FUROXAN]	41	27	0	0	0	0
[O-][n+]1onc(-c2ccccc2C(F)(F)F)c1-c1ccccc1C(F)(F)F [3,4-DI-(2-(TRIFLUOROMETHYL)PHENYL)FUROXAN]	0	0	0	2	14	6
[O-][n+]1onc(-c2ccccc2Cl)c1-c1ccccc1Cl [3,4-DI-(2-CHLOROPHENYL)FUROXAN]	13	20	10	0	33	26
[O-][n+]1onc(-c2cccnc2Cl)c1-c1cccnc1Cl [3,4-DI-(2-CHLOROPYRIDIN-3-YL)FUROXAN]	19	27	10	0	0	11
[O-][n+]1onc(-c2ccccc2F)c1-c1ccccc1F [3,4-DI-(2-FLUOROPHENYL)FUROXAN]	6	0	0	0	0	0
[O-][n+]1onc(-c2ccc(C(F)(F)F)cc2)c1-c1ccc(C(F)(F)F)cc1 [3,4-DI-(4-(TRIFLUOROMETHYL)PHENYL)FUROXAN]	6	53	0	0	17	11
Cc1ccc(-c2no[n+]([O-])c2-c2ccc(C)s2)s1 [3,4-DI-(5-METHYLTHIOPHEN-2-YL)FUROXAN]	38	33	0	0	17	5
Cc1c(Cn2cncn2)no[n+]1[O-] [3-METHYL-4-[(1,2,4-TRIAZOL-1-YL)METHYL]FUROXAN]	4	11	0	8	25	0
Cc1c(C(c2ccc(Cl)cc2)n2cncn2)no[n+]1[O-] (stereo not given) [4-[(4-CHLOROPHENYL)(1,2,4-TRIAZOL-1-YL)METHYL]-3-METHYLFUROXAN]	16	37	0	0	25	0
Cc1c(C(O)c2ccc(Cl)cc2)no[n+]1[O-] (stereo not given) [4-[(4-CHLOROPHENYL)HYDROXYMETHYL]-3-METHYLFUROXAN]	0	20	0	25	39	0
Cc1c(C(Cl)c2ccc(Cl)cc2)no[n+]1[O-] (stereo not given) [4-[CHLORO(4-CHLOROPHENYL)METHYL]-3-METHYLFUROXAN]	21	0	0	0	8	0
COc1ccc(C(O)c2no[n+]([O-])c2C)cc1 (stereo not given) [4-[HYDROXY(4-METHOXYPHENYL)METHYL]-3-METHYLFUROXAN]	4	19	0	17	0	5

From ChEMBL document CHEMBL3046398, “Synthesis and Antifungal Activities of Furoxan Derivatives Designed as Novel Fungicide” (1998)
